Laboratory results published in patent US9980945B2, “Benzoisoxazole-substituted compounds as MGLUR4 allosteric potentiators, compositions, and methods of treating neurological dysfunction” (Vanderbilt University, priority 2015, dated 2018).

Biological target: mGluR4 (UniProt Q14833)
Test: mGluR4 potentiation assay (EC50 for potentiation at EC20 agonist; fluorometric plate reader, Ca2+ or thallium dye)
Type: cell-based
Details: potentiation of mGluR4; species of receptor not given
Description: The disclosed compounds and compositions can be evaluated for their ability to act as a potentiator of metabotropic glutamate receptor activity, in particular mGluR4 activity, by any suitable known methodology known in the art. For example, Chinese Hamster Ovary (CHO) cells transacted with human mGluR4 or HEK cells co-transfected with rat mGluR4 and the G-protein regulated Inwardly Rectifying Potassium channel (GIRK) were plated in clear bottom assay plates for assay in a Hamamatsu FDSS Fluorometric Plate Reader. The cells were loaded with either a Ca2+-sensitive fluorescent dye or the thallium responsive dye and the plates were washed and placed into a suitable kinetic plate reader. For human mGluR4 assays, a fluorescence baseline was established for 3-5 seconds, the disclosed compounds were then added to the cells, and the response in cells was measured. Approximately two and a half minutes later, a concentration of mGluR4 orthosteric agonist (e.g. glutamate or L-AP4) eliciting approximately 20% (EC20) of the maximal agonist response was added to the cells, and the response was measured. Two minutes later, a concentration of mGluR4 agonist (e.g. glutamate or L-AP4) eliciting 80% (EC80) of the maximal agonist response was added to the cells, and the response was measured. For rat mGluR4/GIRK experiments, a baseline was established for approximately five seconds, disclosed compounds were added, and either an EC20 or EC80 concentration of agonist was added approximately two and one half minutes later. Potentiation of the agonist response of mGluR4 by the disclosed compounds was observed as an increase in response to the EC20 concentration of agonist in the presence of compound compared to the response to agonist in the absence of compound. Similarly, antagonism of the agonist response of mGluR4 by the disclosed compounds was observed as a decrease in response to the EC80 concentration of agonist in the presence of compound compared to the response to agonist in the absence of compound.
The above described assay operated in two modes. In the first mode, a range of concentrations of the disclosed compounds are added to cells, followed by a single fixed concentration of agonist. If the compound acts as a potentiator, an EC50 so value for potentiation and a maximum extent of potentiation by the compound at this concentration of agonist is determined by non-linear curve fitting. If the compound acts as a noncompetitive antagonist, an IC50 value is determined by non-linear curve fitting. In the second mode, several fixed concentrations of the disclosed compounds are added to various wells on a plate, followed by a range in concentrations of agonist for each concentration of disclosed compound. The EC50 values for the agonist at each concentration of compound are determined by non-linear curve fitting. A decrease in the EC50 value of the agonist with increasing concentrations of the sample compound (a leftward shift of the agonist concentration-response curve) is an indication of the degree of mGluR4 potentiation at a given concentration of the sample compound. A decrease in the maximal response of the agonist with increasing concentrations of the sample compounds, with or without a rightward shift in agonist potency, is an indication of the degree of noncompetitive antagonism at mGluR4. The second mode also indicates whether the sample compounds also affect the maximum response to mGluR4 to agonists.

| Structure (SMILES) | EC50 [nM] |
| --- | --- |
| Cc1noc2cc(Nc3n[nH]c4cccnc34)ccc12 [Example 1, 3-methyl-N-(1H-pyrazolo[4,3-b]pyridin-3-yl)benzo[d]isoxazol-6-amine] | 1860 |
| c1cnc2[nH]nc(Nc3ccc4c(C5CCCC5)noc4c3)c2c1 [Example 5, 3-cyclopentyl-N-(1H-pyrazolo[3,4-b]pyridin-3-yl)benzo[d]isoxazol-6-amine] | 2400 |
| ClC1(c2noc3cc(Nc4n[nH]c5cccnc45)ccc23)CCC1 [Example 6, 3-(1-chlorocyclobutyl)-N-(1H-pyrazolo[4,3-b]pyridin-3-yl)benzo[d]isoxazol-6-amine] | > 10000 |
| CC(C)Cc1noc2cc(Nc3n[nH]c4ncccc34)ccc12 [Example 9, 3-isobutyl-N-(1H-pyrazolo[3,4-b]pyridin-3-yl)benzo[d]isoxazol-6-amine] | 4800 |
| CC(C)Cc1noc2cc(Nc3n[nH]c4ccccc34)ccc12 [Example 10, N-(1H-indazol-3-yl)-3-isobutylbenzo[d]isoxazol-6-amine] | > 10000 |
| CCc1noc2cc(Nc3n[nH]c4ncccc34)ccc12 [Example 15, 3-ethyl-N-(1H-pyrazolo[3,4-b]pyridin-3-yl)benzo[d]isoxazol-6-amine] | 2100 |
| CC(C)(C)Cc1noc2cc(Nc3n[nH]c4ccccc34)ccc12 [Example 17, N-(1H-indazol-3-yl)-3-neopentylbenzo[d]isoxazol-6-amine] | > 10000 |
| CCc1noc2cc(Nc3n[nH]c4ccccc34)ccc12 [Example 18, 3-ethyl-N-(1H-imdazol-3-yl)benzo[d]isoxazol-6-amine] | 1940 |
| CCc1noc2cc(Nc3n[nH]c4nccnc34)ccc12 [Example 19, 3-ethyl-N-(1H-pyrazolo[3,4-b]pyrazin-3-yl)benzo[d]isoxazol-6-amine] | 1310 |
| CC(C)(C)Cc1noc2cc(Nc3n[nH]c4ncccc34)ccc12 [Example 20, 3-neopentyl-N-(1H-pyrazolo[3,4-b]pyridin-3-yl)benzo[d]isoxazol-6-amine] | 3100 |
| c1cc2oncc2cc1Nc1n[nH]c2c1CCCC2 [Example 21, N-(4,5,6,7-tetrahydro-1H-indazol-3-yl)benzo[d]isoxazol-5-amine] | > 10000 |
| CCc1noc2ccc(Nc3n[nH]c4cccnc34)cc12 [Example 25, 3-ethyl-N-(1H-pyrazolo[4,3-b]pyridin-3-yl)benzo[d]isoxazol-5-amine] | > 10000 |
| CC1CN(c2noc3cc(Nc4n[nH]c5cccnc45)ccc23)CC(C)O1 (stereo not shown) [Example 28, 3-(2,6-dimethylmorpholino)-N-(1H-pyrazolo[4,3-b]pyridin-3-yl)benzo[d]isoxazol-6-amine] | 1860 |
| O=C(c1noc2cc(Nc3n[nH]c4cccnc34)ccc12)N1CCC(F)(F)C1 [Example 30, (6-((1H-pyrazolo[4,3-b]pyridin-3-yl)amino)benzo[d]isoxazol-3-yl)(3,3-difluoropyrrolidin-1-yl)methanone] | > 10000 |
| CC1(COc2noc3cc(Nc4n[nH]c5cccnc45)ccc23)COC1 [Example 41, 3-[(3-methyloxetan-3-yl)methoxy]-N-(1H-pyrazolo[4,3-b]pyridin-3-yl)-1,2-benzoxazol-6-amine] | 2820 |

More lines, now with the values ahead:

| EC50 [nM] | Structure (SMILES) |
| --- | --- |
| 523 | c1cnc2c(Nc3ccc4c(C5CCCC5)noc4c3)n[nH]c2c1 [Example 2, 3-cyclopentyl-N-(1H-pyrazolo[4,3-b]pyridin-3-yl)benzo[d]isoxazol-6-amine] |
| 897 | c1cnc2c(Nc3ccc4c(C5CCC5)noc4c3)n[nH]c2c1 [Example 3, 3-cyclobutyl-N-(1H-pyrazolo[4,3-b]pyridin-3-yl)benzo[d]isoxazol-6-amine] |
| 683 | c1cnc2c(Nc3ccc4c(C5CCC5)noc4c3)n[nH]c2n1 [Example 4, 3-cyclobutyl-N-(1H-pyrazolo[3,4-b]pyrazin-3-yl)benzo[d]isoxazol-6-amine] |
| 527 | c1cnc2c(Nc3ccc4c(C5CCCC5)noc4c3)n[nH]c2n1 [Example 7, 3-cydopentyl-N-(1H-pyrazolo[3,4-b]pyrazin-3-yl)benzo[d]isoxazol-6-amine] |
| 185 | ClC1(c2noc3cc(Nc4n[nH]c5nccnc45)ccc23)CCC1 [Example 8, 3-(1-chlorocyclobutyl)-N-(1H-pyrazolo[3,4-b]pyrazin-3-yl)benzo[d]isoxazol-6-amine] |
| 521 | CC(C)(C)Cc1noc2cc(Nc3n[nH]c4cccnc34)ccc12 [Example 11, 3-neopentyl-N-(1H-pyrazolo[4,3-b]pyridin-3-yl)benzo[d]isoxazol-6-amine] |
| 826 | CC(C)Cc1noc2cc(Nc3n[nH]c4cccnc34)ccc12 [Example 12, 3-isobutyl-N-(1H-pyrazolo[4,3-b]pyridin-3-yl)benzo[d]isoxazol-6-amine] |
| 849 | CC(C)Cc1noc2cc(Nc3n[nH]c4nccnc34)ccc12 [Example 13, 3-isobutyl-N-(1H-pyrazolo[3,4-b]pyrazin-3-yl)benzo[d]isoxazol-6-amine] |
| 617 | CC(C)(C)Cc1noc2cc(Nc3n[nH]c4nccnc34)ccc12 [Example 14, 3-neopentyl-N-(1H-pyrazolo[3,4-b]pyrazin-3-yl)benzo[d]isoxazol-6-amine] |
| 1300 | CCc1noc2cc(Nc3n[nH]c4cccnc34)ccc12 [Example 16, 3-ethyl-N-(1H-pyrazolo[4,3-b]pyridin-3-yl)benzo[d]isoxazol-6-amine] |
| 76 | Cc1noc2ccc(Nc3n[nH]c4cccnc34)cc12 [Example 22, 3-methyl-N-(1H-pyrazolo[4,3-b]pyridin-3-yl)benzo[d]isoxazol-5-amine] |
| 124 | Cc1noc2ccc(Nc3n[nH]c4nccnc34)cc12 [Example 23, 3-methyl-N-(1H-pyrazolo[3,4-b]pyrazin-3-yl)benzo[d]isoxazol-5-amine] |
| 297 | Cc1noc2ccc(Nc3n[nH]c4ncccc34)cc12 [Example 24, 3-methyl-N-(1H-pyrazolo[3,4-b]pyridin-3-yl)benzo[d]isoxazol-5-amine] |
| 1200 | c1cnc2c(Nc3ccc4c(OC5CCOCC5)noc4c3)n[nH]c2c1 [Example 26, N-(1H-pyrazolo[4,3-b]pyridin-3-yl)-3-((tetrahydro-2H-pyran-4-yl)oxy)benzo[d]isoxazole-6-amine] |
| 1280 | c1cnc2c(Nc3ccc4c(OCC5CCCCO5)noc4c3)n[nH]c2c1 (stereo not shown) [Example 27, N-(1H-pyrazolo[4,3-b]pyridin-3-yl)-3-((tetrahydro-2H-pyran-2-yl)methoxy)benzo[d]isoxazole-6-amine] |
| 249 | O=C(NC1CC(F)(F)C1)c1noc2cc(Nc3n[nH]c4cccnc34)ccc12 [Example 29, 6-((1H-pyrazolo[4,3-b]pyridin-3-yl)amino)-N-(3,3-difluorocyclobutyl)benzo[d]isoxazole-3-carboxamide] |
| 645 | CC(c1ccc2c(cnn2C)c1)c1noc2cc(Nc3n[nH]c4cccnc34)ccc12 (stereo not shown) [Example 31, 3-(1-(1-methyl-1H-indazol-5-yl)ethyl)-N-(1H-pyrazolo[4,3-b]pyridin-3-yl)benzo[d]isoxazol-6-amine] |
| 96 | COc1ccc(Cc2noc3cc(Nc4n[nH]c5cccnc45)ccc23)cn1 [Example 32, 3-((6-methoxypyridin-3-yl)methyl)-N-(1H-pyrazolo[4,3-b]pyridin-3-yl)benzo[d]isoxazol-6-amine] |
| 44 | c1cnc2c(Nc3ccc4c(Cc5ccc6[nH]ncc6c5)noc4c3)n[nH]c2c1 [Example 33, 3-((1H-indazol-5-yl)methyl)-N-(1H-pyrazolo[4,3-b]pyridin-3-yl)benzo[d]isoxazol-6-amine] |
| 672 | O=C(NC1CCC1)c1noc2cc(Nc3n[nH]c4cccnc34)ccc12 [Example 53, N-cyclobutyl-6-(1H-pyrazolo[4,3-b]pyridin-3-ylamino)-1,2-benzoxazole-3-carboxamide] |
| 764 | O=C(NC1CC(F)C1)c1noc2cc(Nc3n[nH]c4cccnc34)ccc12 (stereo not shown) [Example 54, N-(3-fluorocyclobutyl)-6-(1H-pyrazolo[4,3-b]pyridin-3-ylamino)-1,2-benzoxazol-3-carboxamide] |
| 539 | CC(C)(C)CNCc1noc2cc(Nc3n[nH]c4cccnc34)ccc12 [Example 77, 3-[(2,2-dimethylpropylamino)methyl]-N-(1H-pyrazolo[4,3-b]pyridin-3-yl)-1,2-benzoxazol-6-amine] |
